Test system: subjects with advanced malignancies
Assay: Phase 1 dose escalation: toxicity, safety and tolerability (DLT, MAD, RP2D, AEs)
[1] = Dose level 0.33 mg/m^2, 1 subject
[2] = Dose level 0.66 mg/m^2, 1 subject
[3] = Dose level 1.32 mg/m^2, 1 subject
[4] = Dose level 2.59 mg/m^2, 4 subjects
[5] = Dose level 3.63 mg/m^2, 8 subjects
[6] = Dose level 5.08 mg/m^2, 3 subjects
[7] = Dose level 7.11 mg/m^2, 7 subjects
[8] = Dose level 10 mg/m^2, 3 subjects
[9] = Dose level 12 mg/m^2, 11 subjects

## CCc1cnn2c(NCc3ccc[n+]([O-])c3)cc(N3CCCC[C@H]3CCO)nc12 [dinaciclib]
14 mg/m^2 (n = 5), Grade 3–4
  TEAE: Abdominal distension: 0 n (%)
  TEAE: Abdominal pain: 0 n (%)
  TEAE: Anemia: 1 (20) n (%)
  TEAE: Asthenia: 1 (20) n (%)
  TEAE: Back pain: 0 n (%)
  TEAE: Constipation: 0 n (%)
  TEAE: Cough: 0 n (%)
  TEAE: Decreased appetite: 0 n (%)
  TEAE: Dehydration: 0 n (%)
  TEAE: Diarrhea: 0 n (%)
  TEAE: Dizziness: 1 (20) n (%)
  TEAE: Dyspnea: 1 (20) n (%)
  TEAE: Fatigue: 0 n (%)
  TEAE: Flatulence: 0 n (%)
  TEAE: Hyperbilirubinemia: 1 (20) n (%)
  TEAE: Hyperglycemia: 1 (20) n (%)
  TEAE: Hyperuricemia: 1 (20) n (%)
  TEAE: Hypokalemia: 0 n (%)
  TEAE: Hypophosphatemia: 0 n (%)
  TEAE: Increased ALP: 1 (20) n (%)
  TEAE: Increased ALT: 0 n (%)
  TEAE: Increased AST: 0 n (%)
  TEAE: Nausea: 1 (20) n (%)
  TEAE: Neutropenia: 2 (40) n (%)
  TEAE: Peripheral edema: 0 n (%)
  TEAE: Pyrexia: 0 n (%)
  TEAE: Subjects with any AE: 5 (100) n (%)
  TEAE: Urinary tract infection: 0 n (%)
  TEAE: Vomiting: 1 (20) n (%)
  TEAE: Weight decreased: 0 n (%)
2-hour IV infusion on days 1, 8, 15 of a 28-day cycle
  maximum administered dose (MAD): 14 mg/m^2
All doses (N = 48), All grades
  TEAE: Abdominal distension: 5 (10) n (%)
  TEAE: Abdominal pain: 8 (17) n (%)
  TEAE: Anemia: 19 (40) n (%)
  TEAE: Asthenia: 11 (23) n (%)
  TEAE: Back pain: 11 (23) n (%)
  TEAE: Constipation: 11 (23) n (%)
  TEAE: Cough: 5 (10) n (%)
  TEAE: Decreased appetite: 14 (29) n (%)
  TEAE: Diarrhea: 6 (13) n (%)
  TEAE: Dizziness: 5 (10) n (%)
  TEAE: Dyspnea: 7 (15) n (%)
  TEAE: Fatigue: 14 (29) n (%)
  TEAE: Flatulence: 6 (13) n (%)
  TEAE: Hyperglycemia: 7 (15) n (%)
  TEAE: Hyperuricemia: 5 (10) n (%)
  TEAE: Hypokalemia: 6 (13) n (%)
  TEAE: Hypophosphatemia: 6 (13) n (%)
  TEAE: Increased ALP: 8 (17) n (%)
  TEAE: Increased ALT: 6 (13) n (%)
  TEAE: Increased AST: 8 (17) n (%)
  TEAE: Nausea: 19 (40) n (%)
  TEAE: Neutropenia: 8 (17) n (%)
  TEAE: Peripheral edema: 7 (15) n (%)
  TEAE: Pyrexia: 8 (17) n (%)
  TEAE: Subjects with any AE: 47 (98) n (%)
  TEAE: Urinary tract infection: 12 (25) n (%)
  TEAE: Vomiting: 11 (23) n (%)
  TEAE: Weight decreased: 5 (10) n (%)
All doses (N = 48), Grade 3–4
  TEAE: Abdominal distension: 0 n (%)
  TEAE: Abdominal pain: 2 (4) n (%)
  TEAE: Anemia: 5 (10) n (%)
  TEAE: Asthenia: 3 (6) n (%)
  TEAE: Back pain: 3 (6) n (%)
  TEAE: Constipation: 0 n (%)
  TEAE: Cough: 0 n (%)
  TEAE: Decreased appetite: 0 n (%)
  TEAE: Dehydration: 0 n (%)
  TEAE: Diarrhea: 0 n (%)
  TEAE: Dyspnea: 3 (6) n (%)
  TEAE: Fatigue: 2 (4) n (%)
  TEAE: Flatulence: 0 n (%)
  TEAE: Hyperbilirubinemia: 5 (10) n (%)
  TEAE: Hyperglycemia: 4 (8) n (%)
  TEAE: Hyperuricemia: 4 (8) n (%)
  TEAE: Hypokalemia: 2 (4) n (%)
  TEAE: Hypophosphatemia: 5 (10) n (%)
  TEAE: Increased ALP: 2 (4) n (%)
  TEAE: Increased AST: 2 (4) n (%)
  TEAE: Nausea: 1 (2) n (%)
  TEAE: Neutropenia: 5 (10) n (%)
  TEAE: Peripheral edema: 0 n (%)
  TEAE: Pyrexia: 0 n (%)
  TEAE: Subjects with any AE: 29 (60) n (%)
  TEAE: Urinary tract infection: 0 n (%)
  TEAE: Weight decreased: 0 n (%)
[1]
  DLT: None
  Subjects with DLT in cycle 1: 0
[2]
  DLT: None
  Subjects with DLT in cycle 1: 0
[3]
  DLT: None
  Subjects with DLT in cycle 1: 0
[4]
  DLT: None
  Subjects with DLT in cycle 1: 0
[5]
  DLT: Hypokalemia, hypocalcemia, hypophosphatemia
  Subjects with DLT in cycle 1: 1
[6]
  DLT: None
  Subjects with DLT in cycle 1: 0
[7]
  DLT: Deep vein thrombosis
  Subjects with DLT in cycle 1: 1
[8]
  DLT: None
  Subjects with DLT in cycle 1: 0
[9]
  DLT: Septic shock
  Subjects with DLT in cycle 1: 1
Dose level 14 mg/m^2, 5 subjects
  DLT: Orthostatic hypotension (1), elevated uric acid (1)

From article PMC3853718 (Journal of Translational Medicine, 2013)
